For assay [1], the system named is T-Rex 293 cell line SC3 cells having increased expression of androgen receptor protein due to exposure to doxycycline. The assay is described as follows: Cellular growth inhibition, T-Rex 293 SC3 cells with doxycycline (androgen receptor induced), CellTiter-Glo. It counts as cell-based. The settings on record: 72 h, T-Rex 293 SC3 cells with 10 ng/mL doxycycline (increased androgen receptor expression). A digest of the protocol:
(§1)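 With DMSO (0.5%) vehicle as negative control, compounds treated SC3 cells for 72 h in medium containing charcoal-dextran FBS ± doxycycline. This T-Rex 293 clone expresses transfected wild-type AR on induction. Readout: CellTiter-Glo 2.0; GI50 by nonlinear regression.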

For assay [2], the system named is T-Rex 293 cell line SC3 cells lacking increased expression of androgen receptor protein. The assay is described as follows: Cellular growth inhibition, T-Rex 293 SC3 cells without doxycycline, CellTiter-Glo. It counts as cell-based. The settings on record: 72 h, T-Rex 293 SC3 cells not exposed to doxycycline, CellTiter-Glo 2.0. In short, it runs like this:
as §1

A further assay concerns VCaP cells. Put plainly: Cellular growth inhibition assay for VCaP cells, CellTiter-Glo. Type of assay: cell-based, human. The settings on record: Homo sapiens, VCaP, 72 h, 72 hours treatment, CellTiter-Glo 2.0. A digest of the protocol:
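GI50 values come from four-parameter curve fits of luminescence data normalized to a zero baseline. Compound, in medium with 0.5% DMSO, was added one day after plating and left for 72 h before CellTiter-Glo 2.0 addition.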

The text below walks through data of patent publication US20260062422A1 (Halda Therapeutics OpCo, Inc., priority 2022, published 2026).

A value given as a limit tells only on which side of the number the result lay.

For `Cc1sc2c(c1C)C(c1ccc(CC3CC(C4CCN(c5ncc(C(=O)N[C@H]6C(C)(C)[C@H](Oc7ccc(C#N)c(Cl)c7)C6(C)C)cn5)CC4)C3)cc1)=NC(Cc1ncco1)c1nnc(C)n1-2` (stereo partly drawn) [Compound I-136], the figures for the GI50 (in assay [1]; in assay [2]; with VCaP cells) were under 500 nM, over 3000 nM and under 500 nM, respectively.
As for `CCNC(=O)C[C@@H]1N=C(c2ccc(OCCCC#Cc3ncc(C(=O)N[C@H]4C(C)(C)[C@H](Oc5ccc(C#N)c(Cl)c5)C4(C)C)cn3)cc2)c2c(sc(C)c2C)-n2c(C)nnc21` [Compound I-83], the GI50 in assay [1] is under 500 nM; in assay [2] it was 500 to 1500 nM; in the assay with VCaP cells it was 500 to 1500 nM.
For the compound `Cc1sc2c(c1C)C(c1ccc(O[C@H]3CC[C@@]4(CCCN(c5ncc(C(=O)N[C@H]6C(C)(C)[C@H](Oc7ccc(C#N)c(Cl)c7)C6(C)C)cn5)C4)CC3)cc1)=N[C@@H](Cc1ncco1)c1nnc(C)n1-2` [Compound I-172], the GI50 is under 500 nM in assay [1], 500 to 1500 nM in assay [2] and 500 to 1500 nM in the assay with VCaP cells.
Turning to `Cc1sc2c(c1C)C(c1ccc(Cl)cc1)=N[C@H](CC(=O)NCCOCCOCCOCCOCCN(C)c1ncc(C(=O)N[C@H]3C(C)(C)[C@H](Oc4ccc(C#N)c(Cl)c4)C3(C)C)cn1)c1nnc(C)n1-2` [Compound I-19], the GI50 (in assay [1]; in assay [2]; in the assay with VCaP cells) was over 3000 nM throughout.
Consider `CCNC(=O)C[C@@H]1N=C(c2ccc(OCCOCCOC3CCN(c4ncc(C(=O)N[C@H]5C(C)(C)[C@H](Oc6ccc(C#N)c(Cl)c6)C5(C)C)cn4)CC3)cc2)c2c(sc(C)c2C)-n2c(C)nnc21` [Compound I-44], for which the values for the GI50 (in assay [1]; in assay [2]; with VCaP cells) were under 500 nM, 500 to 1500 nM and under 500 nM, respectively.
`CCNC(=O)C[C@@H]1N=C(c2ccc(N3CCC(CN4CC(Oc5ncc(C(=O)N[C@H]6C(C)(C)[C@H](Oc7ccc(C#N)c(Cl)c7)C6(C)C)cn5)C4)CC3)cc2)c2c(sc(C)c2C)-n2c(C)nnc21` [Compound I-124]: the GI50 in assay [1] was under 500 nM; in assay [2], 1500 to 3000 nM; in the assay on VCaP cells, 500 to 1500 nM.
For `CCNC(=O)C[C@@H]1N=C(c2ccc(N(C)C3CN(CC4CCN(c5ncc(C(=O)N[C@H]6C(C)(C)[C@H](Oc7ccc(C#N)c(Cl)c7)C6(C)C)cn5)CC4)C3)cc2)c2c(sc(C)c2C)-n2c(C)nnc21` [Compound I-119], in that order: under 500 nM, 500 to 1500 nM and 500 to 1500 nM.
The matching figures for `CCNC(=O)C[C@@H]1N=C(c2ccc(OCCOCCOCCOC3CCN(c4ncc(C(=O)N[C@H]5C(C)(C)[C@H](Oc6ccc(C#N)c(Cl)c6)C5(C)C)cn4)CC3)cc2)c2c(sc(C)c2C)-n2c(C)nnc21` [Compound I-45, N-((1r,3r)-3-(3-chloro-4-cyanophenoxy)-2,2,4,4-tetramethylcyclobutyl)-2-(4-(2-(2-(2-(4-((S)-6-(2-(ethylamino)-2-oxoethyl)-2,3,9-trimethyl-6H-thieno[3,2-f][1,2,4]triazolo[4,3-a][1,4]diazepin-4-yl)phenoxy)ethoxy)ethoxy)ethoxy)piperidin-1-yl)pyrimidine-5-carboxamide]: under 500 nM, 500 to 1500 nM and under 500 nM.
The matching figures for `COCC[C@@H]1N=C(c2ccc(CCCOC3CCN(c4ncc(C(=O)N[C@H]5C(C)(C)[C@H](Oc6ccc(C#N)c(Cl)c6)C5(C)C)cn4)CC3)cc2)c2c(sc(C)c2C)-n2c(C)nnc21` [Compound I-227, N-[3-(3-chloro-4-cyano-phenoxy)-2,2,4,4-tetramethyl-cyclobutyl]-2-[4-[3-[4-[(9S)-9-(2-methoxyethyl)-4,5,13-trimethyl-3-thia-1,8,11,12-tetrazatricyclo[8.3.0.02,6]trideca-2(6),4,7,10,12-pentaen-7-yl]phenyl]propoxy]-1-piperidyl]pyrimidine-5-carboxamide]: under 500 nM, 500 to 1500 nM and over 3000 nM.
As for `Cc1sc2c(c1C)C(c1ccc(OC3CC4(CCN(c5ncc(C(=O)N[C@H]6C(C)(C)[C@H](Oc7ccc(C#N)c(Cl)c7)C6(C)C)cn5)CC4)C3)cc1)=NC(Cc1ncco1)c1nnc(C)n1-2` (stereo partly drawn) [Compound I-166], the GI50 was under 500 nM in assay [1], 500 to 1500 nM in assay [2] and under 500 nM with VCaP cells.
For the compound `Cc1sc2c(c1C)C(c1ccc(OCCOCCOC3CCN(c4ncc(C(=O)N[C@H]5C(C)(C)[C@H](Oc6ccc(C#N)c(Cl)c6)C5(C)C)cn4)CC3)cc1)=N[C@@H](CC(=O)O)c1nnc(C)n1-2` [Compound I-39], the results for the GI50 (in assay [1]; in assay [2]; in the assay on VCaP cells) were 500 to 1500 nM, over 3000 nM and over 3000 nM, respectively.
Regarding `Cc1sc2c(c1C)C(c1ccc(CCCOC3CCN(c4ncc(C(=O)N[C@H]5C(C)(C)[C@H](Oc6ccc(C#N)c(Cl)c6)C5(C)C)cn4)CC3)cc1)=N[C@@H](Cc1ncco1)c1nnc(C)n1-2` [Compound I-131, N-[3-(3-chloro-4-cyano-phenoxy)-2,2,4,4-tetramethyl-cyclobutyl]-2-[4-[3-[4-[(9S)-4,5,13-trimethyl-9-(oxazol-2-ylmethyl)-3-thia-1,8,11,12-tetrazatricyclo[8.3.0.02,6]trideca-2(6),4,7,10,12-pentaen-7-yl]phenyl]propoxy]-1-piperidyl]pyrimidine-5-carboxamide], the 50% growth inhibitory concentration (GI50) (in assay [1]; in assay [2]; in the assay on VCaP cells) was under 500 nM throughout.
`CCNC(=O)C[C@@H]1N=C(c2ccc(N3CCC(N(C)C4CN(c5ncc(C(=O)N[C@H]6C(C)(C)[C@H](Oc7ccc(C#N)c(Cl)c7)C6(C)C)cn5)C4)CC3)cc2)c2c(sc(C)c2C)-n2c(C)nnc21` [Compound I-123]: the GI50 was under 500 nM in assay [1], 500 to 1500 nM in assay [2] and under 500 nM in the assay on VCaP cells.
Take `CCNC(=O)C[C@@H]1N=C(c2ccc(OC3CCN(C4CCN(c5ncc(C(=O)N[C@H]6C(C)(C)[C@H](Oc7ccc(C#N)c(Cl)c7)C6(C)C)cn5)CC4)C3)cc2)c2c(sc(C)c2C)-n2c(C)nnc21` (stereo partly drawn) [Compound I-85]: the GI50 in assay [1] is under 500 nM; in assay [2], over 3000 nM; in the assay with VCaP cells it was under 500 nM.
Regarding `Cc1sc2c(c1C)C(c1ccc(N3CC(C4CCN(c5ncc(C(=O)N[C@H]6C(C)(C)[C@H](Oc7ccc(C#N)c(Cl)c7)C6(C)C)cn5)CC4)C3)cc1)=NC(Cc1ncco1)c1nnc(C)n1-2` (stereo partly drawn) [Compound I-209], the GI50 in assay [1] is under 500 nM; in assay [2] it was over 3000 nM; in the assay with VCaP cells it was under 500 nM.
